Values joined by “and” are separate entries in the source; they are usually repeats but may differ in a detail not shown here. Identical values can stand only once. “Also recorded” adds a separate entry of the source.
Tests used:
[1] = tested on: Ascaris-sensitized sheep; assay: Antigen-induced changes in specific lung resistance (early and late responses), Examples 1-2; type: in vivo; conditions: for Specific resistance, +1 HR % / Specific resistance, +1 HR Srl: 1 h post antigen; for Specific resistance, +2 HRS % / Specific resistance, +2 HRS Srl: 2 h post antigen; for Specific resistance, P-ASC % / Specific resistance, P-ASC Srl: immediately post Ascaris antigen; for Specific resistance, P-pl/dg % (immediate) / Specific resistance, P-pl/dg Srl (immediate): immediately post drug; for Specific resistance, P-pl/dg % (just before Ag) / Specific resistance, P-pl/dg Srl (just before Ag): post drug, just before antigen; for Specific resistance, +3 HRS % / Specific resistance, +3 HRS Srl: 3 h post antigen; for Specific resistance, +4 HRS % / Specific resistance, +4 HRS Srl: 4 h post antigen; for Specific resistance, +5 HRS % / Specific resistance, +5 HRS Srl: 5 h post antigen; for Specific resistance, +7 HRS % / Specific resistance, +7 HRS Srl: 7 h post antigen; for Specific resistance, +7.5 HRS % / Specific resistance, +7.5 HRS Srl: 7.5 h post antigen; for Specific resistance, +8 HRS % / Specific resistance, +8 HRS Srl: 8 h post antigen
Procedure: All procedures were approved by the Mount Sinai Medical Center Animal Research Committee, which is responsible for assuring the humane care and use of experimental animals.
Measurement of Airway Mechanics: The unsedated sheep were restrained in a cart in the prone position with their heads immobilized. After topical anesthesia of the nasal passages with 2% lidocaine solution, a balloon catheter was advanced through one nostril into the lower esophagus. The animals were […] with a cuffed endotracheal tube through the other nostril using a flexible fiberoptic bronchoscope as a guide. […] Pleural pressure was estimated with the esophageal balloon catheter (filled with one ml of air) which was positioned 5–10 cm from the gastroesophageal junction. […] Once the balloon was placed, it was secured so that it remained in position for the duration of the experiment. Lateral pressure in the trachea was-measured with a sidehole catheter (inner dimension, 2.5 mm) advanced through and positioned distal to the tip of the endotracheal tube. Transpulmonary pressure, the difference between tracheal and pleural pressure, was measured with a differential pressure transducer catheter system. For the measurement of pulmonary resistance (RL), the proximal end of the endotracheal tube was connected to a pneumotachograph (Fleisch No. 1; Dyna Sciences, Inc., Blue Bell, Pa.). […] The mean of at least five breaths, free of swallowing artifact, was used to obtain RL in cm H2O/L/s. Immediately after the measurement of RL, thoracic gas volume (Vtg) was measured in a constant-volume body plethysmograph to obtain specific lung resistance (SRL=RL×Vtg) in L×cm H2O/L/s.
Aerosol Delivery Systems: Aerosols of Ascaris suum extract (diluted 20:1 with phosphate buffered saline; 82,000 PNU/ml) were generated using a disposable medical nebulizer (Raindrop^R, Puritan Bennett), which produces an aerosol with a mass median aerodynamic diameter of 3.2 μm (geometric standard deviation, 1.9) as determined by a 7 stage Andersen cascade impactor. The output from the nebulizer was directed into a plastic T-piece, one end of which was connected to the inspiratory port of a Harvard respirator. […] The aerosol was delivered at a tidal volume of 500 ml and a rate of 20 breaths per minute for 20 minutes. Each sheep was challenged with an equivalent dose of antigen (400 breaths) in the control and drug trials. Carbachol aerosols were also generated with this same nebulizer system.
At 3 to 4 days before treatment was begun, baseline airway responsiveness, to aerosol carbachol (i.e., PC400) was determined and a baseline bronchial biopsy performed. […] The animals were treated two times a day for 3 days and then, on the fourth day, at 0.5 hours before antigen challenge and again at 4 hours after challenge. […] SRL was remeasured 0.5 h after treatment (just before challenge) and the animals were then challenged with antigen. SRL was then remeasured immediately after.
On the fourth day, they received an additional treatment one-half hour prior to antigen challenge.

[2] = tested on: IL-4; conditions: Seggev J Immunol 150:62A; cited from earlier work
[3] = Example 1, aerosol 30 mg/animal (0.78 mg/kg) twice a day, Mean
[4] = Example 1, aerosol 30 mg/animal (0.78 mg/kg) twice a day, individual sheep
[5] = Example 2, aerosol 40 mg b.i.d. (2 mg/kg/day)
[6] = Example 2, aerosol 40 mg b.i.d. (2 mg/kg/day), Mean of 2 sheep
[7] = Example 2, aerosol 40 mg b.i.d. (2 mg/kg/day), individual sheep
[8] = Example 2, aerosol 40 mg b.i.d. (2 mg/kg/day), 6 h post antigen, Mean of 2 sheep
[9] = Example 2, aerosol 40 mg b.i.d. (2 mg/kg/day), 6 h post antigen, individual sheep
[10] = Example 2, aerosol 40 mg b.i.d. (2 mg/kg/day), +6 HRS, individual sheep
[11] = inhaled (nebulized), summary of animal studies

In the case of `CCN(CCO)CCCC(C)Nc1ccnc2cc(Cl)ccc12` (stereo not drawn) [HCQ, hydroxychloroquine], the “Specific resistance, +1 HR %” value [1, 3] is reported as 38%, the “Specific resistance, +1 HR Srl” value [1, 3] is reported as 1.39 L×cm H2O/L/s and the “Specific resistance, +1 HR %” value [1, 4] is reported as 32% and 43% and 30%. The “Specific resistance, +1 HR Srl” value [1, 4] was 1.35 L×cm H2O/L/s and 1.49 L×cm H2O/L/s, the “Specific resistance, +2 HRS %” value [1, 3] was 42% and the “Specific resistance, +2 HRS Srl” value [1, 3] was 1.44 L×cm H2O/L/s. For the same molecule, the “Specific resistance, +2 HRS %” value [1, 4] was 11% and 74% and 4%, the “Specific resistance, +2 HRS Srl” value [1, 4] was 1.13 L×cm H2O/L/s and 1.74 L×cm H2O/L/s and 1.2 L×cm H2O/L/s and the “Specific resistance, P-ASC %” value [1, 3] was 95%. For the same molecule, the “Specific resistance, P-ASC Srl” value [1, 3] was 1.97 L×cm H2O/L/s, the “Specific resistance, P-ASC %” value [1, 4] was 140% and 49% and 189% and the “Specific resistance, P-ASC Srl” value [1, 4] was 2.45 L×cm H2O/L/s and 1.49 L×cm H2O/L/s and 3.32 L×cm H2O/L/s. For the same molecule, the “Specific resistance, P-pl/dg % (immediate)” value [1, 3] was 10%, the “Specific resistance, P-pl/dg Srl (immediate)” value [1, 3] was 1.11 L×cm H2O/L/s and the “Specific resistance, P-pl/dg % (immediate)” value [1, 4] was 18% and 2% and 19%. The “Specific resistance, P-pl/dg Srl (immediate)” value [1, 4] was 1.20 L×cm H2O/L/s and 1.02 L×cm H2O/L/s and 1.37 L×cm H2O/L/s, the “Specific resistance, P-pl/dg % (just before Ag)” value [1, 3] was 2% and the “Specific resistance, P-pl/dg Srl (just before Ag)” value [1, 3] was 1.03 L×cm H2O/L/s. The “Specific resistance, P-pl/dg % (just before Ag)” value [1, 4] was 9% and −5% and −2%, the “Specific resistance, P-pl/dg Srl (just before Ag)” value [1, 4] was 1.11 L×cm H2O/L/s and 0.95 L×cm H2O/L/s and 1.13 L×cm H2O/L/s and the “effect on acute reactions” value [1, 5] was “not inhibited”. The “effect on late phase asthmatic reactions” value [1, 5] was “virtually completely blocked”, the “Specific resistance, +1 HR %” value [1, 6] was 132% and the “Specific resistance, +1 HR Srl” value [1, 6] was 2.43 L×cm H2O/L/s. The “Specific resistance, +1 HR %” value [1, 7] was 171% and 93%, the “Specific resistance, +1 HR Srl” value [1, 7] was 2.76 L×cm H2O/L/s and 2.10 L×cm H2O/L/s and the “Specific resistance, +2 HRS %” value [1, 6] was 69%. The “Specific resistance, +2 HRS Srl” value [1, 6] was 1.74 L×cm H2O/L/s, the “Specific resistance, +2 HRS %” value [1, 7] was 102% and 36% and the “Specific resistance, +2 HRS Srl” value [1, 7] was 2.06 L×cm H2O/L/s and 1.48 L×cm H2O/L/s. The “Specific resistance, +3 HRS %” value [1, 6] was 50%, the “Specific resistance, +3 HRS Srl” value [1, 6] was 1.58 L×cm H2O/L/s and the “Specific resistance, +3 HRS %” value [1, 7] was 54% and 46%. For the same molecule, the “Specific resistance, +3 HRS Srl” value [1, 7] was 1.57 L×cm H2O/L/s and 1.59 L×cm H2O/L/s, the “Specific resistance, +4 HRS %” value [1, 6] was 19% and the “Specific resistance, +4 HRS Srl” value [1, 6] was 1.26 L×cm H2O/L/s. For the same molecule, the “Specific resistance, +4 HRS %” value [1, 7] was 10% and 28%, the “Specific resistance, +4 HRS Srl” value [1, 7] was 1.12 L×cm H2O/L/s and 1.39 L×cm H2O/L/s and the “Specific resistance, +5 HRS %” value [1, 6] was 17%. The “Specific resistance, +5 HRS Srl” value [1, 6] was 1.23 L×cm H2O/L/s, the “Specific resistance, +5 HRS %” value [1, 7] was 36% and −2% and the “Specific resistance, +5 HRS Srl” value [1, 7] was 1.39 L×cm H2O/L/s and 1.07 L×cm H2O/L/s. For the same molecule, the “Specific resistance, +6 HRS %” value [1, 8] was 18%, the “Specific resistance, +6 HRS Srl” value [1, 8] was 1.24 L×cm H2O/L/s and the “Specific resistance, +6 HRS %” value [1, 9] was 20% and 16%. The “Specific resistance, +6 HRS Srl” value [1, 9] was 1.22 L×cm H2O/L/s and 1.26 L×cm H2O/L/s, the “Specific resistance, +7 HRS %” value [1, 6] was 16% and the “Specific resistance, +7 HRS Srl” value [1, 6] was 1.23 L×cm H2O/L/s. For the same molecule, the “Specific resistance, +7 HRS %” value [1, 7] was 20% and 13%, the “Specific resistance, +7 HRS Srl” value [1, 7] was 1.22 L×cm H2O/L/s and 1.23 L×cm H2O/L/s and the “Specific resistance, +7.5 HRS %” value [1, 6] was 35%. The “Specific resistance, +7.5 HRS Srl” value [1, 6] was 1.42 L×cm H2O/L/s, the “Specific resistance, +7.5 HRS %” value [1, 7] was 50% and 19% and the “Specific resistance, +7.5 HRS Srl” value [1, 7] was 1.53 L×cm H2O/L/s and 1.30 L×cm H2O/L/s. The “Specific resistance, +8 HRS %” value [1, 6] was 20%, the “Specific resistance, +8 HRS Srl” value [1, 6] was 1.27 L×cm H2O/L/s and the “Specific resistance, +8 HRS %” value [1, 7] was 22% and 18%. The “Specific resistance, +8 HRS Srl” value [1, 7] was 1.24 L×cm H2O/L/s and 1.29 L×cm H2O/L/s, the “Specific resistance, +6 HRS Srl” value ([1]; Example 2, aerosol 40 mg b.i.d. (2 mg/kg/day), +6 HRS, Mean of 2 sheep) was 1.21 L×cm H2O/L/s and the “Specific resistance, +6 HRS %” value [1, 10] was 8% and 21%. The “Specific resistance, +6 HRS Srl” value [1, 10] was 1.10 L×cm H2O/L/s and 1.32 L×cm H2O/L/s, the “Specific resistance, P-ASC %” value [1, 6] was 238% and the “Specific resistance, P-ASC Srl” value [1, 6] was 3.58 L×cm H2O/L/s. The “Specific resistance, P-ASC %” value [1, 7] was 196% and 280%, the “Specific resistance, P-ASC Srl” value [1, 7] was 3.02 L×cm H2O/L/s and 4.14 L×cm H2O/L/s and the “Specific resistance, P-pl/dg % (immediate)” value [1, 6] was 3%. The “Specific resistance, P-pl/dg Srl (immediate)” value [1, 6] was 1.08 L×cm H2O/L/s, the “Specific resistance, P-pl/dg % (immediate)” value [1, 7] was 13% and −7% and the “Specific resistance, P-pl/dg Srl (immediate)” value [1, 7] was 1.15 L×cm H2O/L/s and 1.01 L×cm H2O/L/s. For the same molecule, the “Specific resistance, P-pl/dg % (just before Ag)” value [1, 6] was 1%, the “Specific resistance, P-pl/dg Srl (just before Ag)” value [1, 6] was 1.07 L×cm H2O/L/s and the “Specific resistance, P-pl/dg % (just before Ag)” value [1, 7] was −6% and 7%%. For the same molecule, the “Specific resistance, P-pl/dg Srl (just before Ag)” value [1, 7] was 0.96 L×cm H2O/L/s and 1.17 L×cm H2O/L/s, the “Specific resistance, +6 HRS %” value ([1]; Example 2, aerosol 40 mg b.i.d. (2 mg/kg/day), second +6 HRS column (text: at 6.5 hours), Mean of 2 sheep) was 14% and the “irritant effects / tolerability of aerosolized HCQ (airway resistance after inhalation)” value ([1]; aerosol, sheep, specific resistance pre- and immediately following application) was “well tolerated; also recorded: does not cause any major irritant effects”. For the same molecule, the “effect on immediate allergic-mediated bronchostrictive responses” value [1, 11] was “partially blocks”, the “effect on late-phase responses (four to 12 hours post-antigen challenge)” value [1, 11] was “virtually eliminates” and the “effect on the actions of IL-4” value [2] was “blocks”.
